Laboratory results from patent publication US7084178B2, “Antiamyloid phenylsulfonamides: N-cycloalkylcarboxamides derivatives” (Bristol-Myers Squibb Company, priority 2003, dated 2006).

Legend:
[1] = system: Aβ formation in H4 cells stably transfected to overexpress the HPLAP-APP fusion protein; test: Inhibition of β-amyloid peptide formation in human H4 cells; format: cell-based; details: H4 cells overexpressing HPLAP-APP, 18 hrs at 37° C.
Procedure: γ-Secretase inhibitors can also be evaluated using in vitro assays based on the inhibition of Aβ formation in cultured cells. Cultured human cell lines, such as HEK293 and H4 cells, which express APP and γ-secretase activity or transfected derivative cell lines that overexpress wild-type APP, mutant APP, or APP fusion proteins will secrete Aβ peptides into the culture media that can be quantified as previously outlined (Dovey, H., John, V. et al., J. Neurochem. 2001, 76, 173–181). The incubation of these cultured cells with γ-secretase inhibitors decreases the production of Aβ peptides. For instance, H4 cells stably transfected to overexpress the HPLAP-APP fusion protein described above were grown as above, detached, and adjusted to 2×10^5 cells/ml. 100 μl of the resulting suspension was then added to each well of a 96-well plate. After 4 hrs, the media was removed and replaced with 100 μl serum-free media containing various dilutions of the test compound. Plates were then incubated for 18 hrs at 37° C. and a 100 μl aliquot of the tissue culture supernatant was removed for determination of Aβ levels using time-resolved fluorescence of the homogenous sample as outlined above. Alternately, the other methods described above for Aβ determination could be used. The extent of Aβ inhibition was used to calculate the IC50 value for the test compound.
In Table 2, an inhibitory concentration (IC50) of less than or equal to 50 nM is represented by +++; between 50 nM and 500 nM by ++; between 500 nM and 50000 nM by +.

γ-secretase = test: Competitive in vitro binding assay with [3H]-Compound A and membranes from THP-1 cells; details: displacement of [3H]-Compound A, THP-1 cell membranes, 23° C., 1.3 hr; read-out: Binding affinity (IC50 in nM)
Description: Competitive in vitro binding assays can be used to identify compounds that inhibit γ-secretase activity. For example, [^3H]-Compound A can be used for binding assays with membranes from THP-1 cells (Seiffert, D.; Bradley, J. et al., J. Biol. Chem. 2000, 275, 34086–34091). Compound A is (2R,3S) N1-[(3S)-hexahydro-1-(3-phenoxybenzyl)-2-oxo-1H-azepin-3-yl]-2-(2methylpropyl)-3-(propyl)-butanediamide, which is described in U.S. patent U.S. Pat. No. 6,331,408 (Dec. 18, 2001); PCT Publication WO 00/28331; PCT Publication WO 00/07995; and Seiffert, D., Bradley, J. et al., J. Biol. Chem. 2000, 275. 34086–34091.
To evaluate the compounds of this invention using this assay, THP-1 cells were grown in spinner cultures in RPMI 1640 containing L-glutamine and 10 μM β-mercaptoethanol to a density of 5×10^5 cells/ml. Cells were harvested by centrifugation and cell pellets were quick frozen in dry ice/ethanol and stored at −70° C. prior to use. The pellets of approximately 2×10^4 THP-1 cells were homogenized using a Brinkman Polytron at setting 6 for 10 sec. The homogenate was centrifuged at 48,000×g for 12 min, and the resulting pellet was washed by repeating the homogenization and centrifugation. The final cell pellet was resuspended in buffer to yield a protein concentration of approximately 0.5 mg/ml. Assays were initiated by the addition of 150 μl of membrane suspension to 150 μl of assay buffer containing 0.064 μCi of radioligand and various concentrations of unlabeled compounds. Binding assays were performed in duplicate in polypropylene 96-well plates in a final volume of 0.3 ml containing 50 mM Hepes, pH 7.0, and 5% dimethyl sulfoxide. Nonspecific binding was defined using incubations with 300 nM compound A (Seiffert, D., Bradley, J. et al., J. Biol. Chem. 2000, 275, 34086–34091). After incubating at 23° C. for 1.3 hr, bound ligand was separated from free radioligand by filtration over GFF glass fiber filters presoaked in 0.3% ethyleneimine polymer solution. Filters were washed three times with 0.3 ml of ice cold phosphate-buffered saline, pH 7.0, containing 0.1% Triton X-100. Filter-bound radioactivity was measured by scintillation counting. IC50 values were then determined and used to calculate Ki values using the Cheng-Prusoft correction for IC50 values.
The compounds of this invention were evaluated in the assay described above, as well as with other evaluation methods, and found to be inhibitors of γ-secretase. In the table, an inhibitory concentration (IC50) of less than or equal to 50 nM is represented by +++; between 50 nM and 500 nM by ++; between 500 nM and 10000 nM by +.

Row | Compound | IC50 ([1]; Homo sapiens) [nM] | IC50 (γ-secretase) [nM] | IC50 [1] [nM]
1 | NC(=O)[C@@H]1CCCC[C@@H]1N(Cc1ccc(C(F)(F)F)cc1)S(=O)(=O)c1ccc(Cl)cc1 (relative stereo) [Example 10, cis-2-[(4-Chlorobenzenesulfonyl)-(4-trifluoromethyl-benzyl)-amino]-cyclohexanecarboxylic acid amide] | 50 to 500 |  | 
2 | COC(=O)c1ccc(CN([C@@H]2CCCC[C@@H]2C(N)=O)S(=O)(=O)c2ccc(Cl)cc2)cc1 (relative stereo) [Example 13, cis-4-[[(2-Carbamoyl-cyclohexyl)-(4-chlorobenzenesulfonyl)-amino]-methyl]-benzoic acid methyl ester] | ≤ 50 |  | 
3 | COC(=O)c1ccc(CN([C@@H]2CCCC[C@@H]2C(N)=O)S(=O)(=O)c2ccc(Cl)cc2)cc1 [Example 1, 4-[[(1R,2S)-(2-Carbamoyl-cyclohexyl)-(4-chlorobenzenesulfonyl)-amino]-methyl]-benzoic acid methyl ester] | ≤ 50 | ≤ 50 | 
4 | CCNC(=O)c1ccc(CN([C@@H]2CCCC[C@@H]2C(N)=O)S(=O)(=O)c2ccc(Cl)cc2)cc1 [Example 2, 4-[[(1R,2S)-(2-Carbamoyl-cyclohexyl)-(4-chlorobenzenesulfonyl)-amino]-methyl]-N-ethyl-benzamide] | ≤ 50 | ≤ 50 | 
5 | CC(C)(C)c1ccc(CN([C@@H]2CCCC[C@@H]2C(N)=O)S(=O)(=O)c2ccc(Cl)cc2)cc1 [Example 3, (1S,2R)-2-[(4-tert-Butyl-benzyl)-(4-chlorobenzenesulfonyl)-amino]-cyclohexanecarboxylic acid amide] | 50 to 500 |  | 
6 | NC(=O)[C@H]1CCCC[C@H]1N(Cc1ccc(OC(F)(F)F)c(Cl)c1)S(=O)(=O)c1ccc(Cl)cc1 [Example 4, (1S,2R)-2-[(4-Chlorobenzenesulfonyl)-(3-chloro-4-trifluoromethoxy-benzyl)-amino]-cyclohexanecarboxylic acid amide] | 50 to 500 |  | 
7 | NC(=O)[C@H]1CCCC[C@H]1N(Cc1ccc(F)c(Cl)c1)S(=O)(=O)c1ccc(Cl)cc1 [Example 5, (1S,2R)-2-[(4-Chlorobenzenesulfonyl)-(3-chloro-4fluoro-benzyl)-amino]-cyclohexanecarboxylic acid amide] | 50 to 500 |  | 
8 | NC(=O)[C@H]1CCCC[C@H]1N(Cc1ccc(Cl)s1)S(=O)(=O)c1ccc(Cl)cc1 [Example 7, (1S,2R)-2-[(4-Chlorobenzenesulfonyl)-(5-chloro-thiophen-2-ylmethyl)-amino]-cyclohexanecarboxylic acid amide] | ≤ 50 |  | 
9 | NC(=O)[C@H]1CCCC[C@H]1N(Cc1ccc(SC(F)(F)F)cc1)S(=O)(=O)c1ccc(Cl)cc1 [Example 8, (1S,2R)-2-[(4-Chlorobenzenesulfonyl)-(4-trifluoromethylsulfanyl-benzyl)-amino]-cyclohexanecarboxylic acid amide] | ≤ 50 |  | 
10 | (1S,2R)-2-[(4- Chlorobenzenesulfonyl)-[4-( -hydroxy-1-methyl-ethyl)-benzyl]-amino]-cyclohexanecarboxylic acid amide [Example 6] |  |  | ≤ 50

Continued, values first:

Row | IC50 ([1]; Homo sapiens) [nM] | IC50 (γ-secretase) [nM] | IC50 [1] [nM] | Compound
11 |  | 50 to 500 |  | COC(=O)c1ccc(CN([C@@H]2CCCCC[C@@H]2C(N)=O)S(=O)(=O)c2ccc(Cl)cc2)cc1 (relative stereo) [Example 20, cis-4-[[(2-Carbamoyl-cycloheptyl)-(4-chlorobenzenesulfonyl)-amino]-methyl]-benzoic acid methyl ester]
12 | 500 to 50000 |  |  | N#Cc1ccc(CN([C@H]2CCCCC[C@H]2C(N)=O)S(=O)(=O)c2ccc(Cl)cc2)cc1 (relative stereo) [Example 21, cis-2-[(4-Chlorobenzenesulfonyl)-(4-cyano-benzyl)-amino]-cycloheptanecarboxylic acid amide]
13 |  | 500 to 10000 |  | NC(=O)[C@@H]1CCCCC[C@@H]1N(Cc1ccc(-n2cccn2)cc1)S(=O)(=O)c1ccc(Cl)cc1 (relative stereo) [Example 23, cis-2-[(4-Chlorobenzenesulfonyl)-(4-pyrazol-1-yl-benzyl)-amino]-cycloheptanecarboxylic acid amide]
14 | ≤ 50 |  |  | CCNC(=O)c1ccc(CN([C@H]2CCCCC[C@H]2C(N)=O)S(=O)(=O)c2ccc(Cl)cc2)cc1 (relative stereo) [Example 24, cis-2-[(4-Chlorobenzenesulfonyl)-(4-ethylcarbamoyl-benzyl)-amino]-cycloheptanecarboxylic acid amide]
15 |  | 500 to 10000 |  | CCNC(=O)c1ccc(CN([C@@H]2CCCC[C@@H]2C(N)=O)S(=O)(=O)c2ccc(Cl)cc2)cc1 [Example 28, 4-[[(1R,2S)-(2-Carbamoyl-cyclohexyl)-(4-chlorobenzenesulfonyl)-amino]-methyl]-N-ethyl benzamide]
16 |  | 50 to 500 |  | CCNC(=O)c1ccc(CN([C@H]2CCCC[C@@H]2C(N)=O)S(=O)(=O)c2ccc(Cl)cc2)cc1 [Example 29, 4-[[(1S,2S)-(2-Carbamoyl-cyclohexyl)-(4-chlorobenzenesulfonyl)-amino]-methyl]-N-ethyl benzamide]
17 |  | 50 to 500 |  | CCNC(=O)c1ccc(CN([C@@H]2CCCC[C@H]2C(N)=O)S(=O)(=O)c2ccc(Cl)cc2)cc1 [Example 30, 4-[[(1R,2R)-(2-Carbamoyl-cyclohexyl)-(4-chlorobenzenesulfonyl)-amino]-methyl]-N-ethyl benzamide]
18 |  | 50 to 500 |  | CCNC(=O)c1ccc(CN([C@@H]2CCC[C@@H]2C(N)=O)S(=O)(=O)c2ccc(Cl)cc2)cc1 [Example 31, 4-[[(1R,2S)-(2-Carbamoyl-cyclopentyl)-(4-chlorobenzenesulfonyl)-amino]-methyl]-N-ethyl-benzamide]
19 |  | 500 to 10000 |  | CCNC(=O)c1ccc(CN([C@@H]2CCC[C@H]2C(N)=O)S(=O)(=O)c2ccc(Cl)cc2)cc1 [Example 32, 4-[[(1R,2R)-(2-Carbamoyl-cyclopentyl)-(4-chlorobenzenesulfonyl)-amino]-methyl]-N-ethyl-benzamide]
